# Laboratory results published in ChEMBL document CHEMBL5038640, “Natural Berberine-derived Azolyl Ethanols as New Structural Antibacterial Agents against Drug-Resistant Escherichia coli” (J Med Chem, 2022).
# Legend:
# Escherichia coli [1] = experiment: Antibacterial activity against Escherichia coli ATCC 25922 assessed as decrease in bacterial growth incubated for 18 hrs by broth microdilution method; assay type: functional
# Staphylococcus aureus [2] = experiment: Antibacterial activity against Staphylococcus aureus ATCC 29213 assessed as decrease in bacterial growth incubated for 18 hrs by broth microdilution method; assay type: functional
# Enterococcus faecalis = experiment: Antibacterial activity against Enterococcus faecalis assessed as decrease in bacterial growth incubated for 18 hrs by broth microdilution method; assay type: functional
# Pseudomonas aeruginosa [3] = experiment: Antibacterial activity against Pseudomonas aeruginosa assessed as decrease in bacterial growth incubated for 18 hrs by broth microdilution method; assay type: functional
# Staphylococcus aureus [4] = experiment: Antibacterial activity against methicillin-resistant Staphylococcus aureus N315 assessed as decrease in bacterial growth incubated for 18 hrs by broth microdilution method; assay type: functional
# [5] = Aqueous solubility of the compound in saline; assay type: physicochemical
# Staphylococcus aureus [6] = experiment: Antibacterial activity against Staphylococcus aureus ATCC 25923 assessed as decrease in bacterial growth incubated for 18 hrs by broth microdilution method; assay type: functional
# Klebsiella pneumoniae = experiment: Antibacterial activity against Klebsiella pneumoniae assessed as decrease in bacterial growth incubated for 18 hrs by broth microdilution method; assay type: functional
# Acinetobacter baumannii = experiment: Antibacterial activity against Acinetobacter baumannii assessed as decrease in bacterial growth incubated for 18 hrs by broth microdilution method; assay type: functional
# Escherichia coli [7] = experiment: Antibacterial activity against Escherichia coli assessed as decrease in bacterial growth incubated for 18 hrs by broth microdilution method; assay type: functional
# Staphylococcus aureus [8] = experiment: Antibacterial activity against Staphylococcus aureus assessed as decrease in bacterial growth incubated for 18 hrs by broth microdilution method; assay type: functional
# Pseudomonas aeruginosa [9] = experiment: Antibacterial activity against Pseudomonas aeruginosa ATCC 27853 assessed as decrease in bacterial growth incubated for 18 hrs by broth microdilution method; assay type: functional
Compound,MIC (Escherichia coli [1]),MIC (Staphylococcus aureus [2]),MIC (Enterococcus faecalis),MIC (Pseudomonas aeruginosa [3]),MIC (Staphylococcus aureus [4]),solubility [5],MIC (Staphylococcus aureus [6]),MIC (Klebsiella pneumoniae),MIC (Acinetobacter baumannii),MIC (Escherichia coli [7]),MIC (Staphylococcus aureus [8]),MIC (Pseudomonas aeruginosa [9])
COc1ccc2cc3[n+](cc2c1OCC(O)CN1CCCCC1)CCc1cc2c(cc1-3)OCO2.[Br-] (stereo unspecified),236 µM,236 µM,118 µM,118 µM,59 µM,2000 µM,236 µM,236 µM,118 µM,118 µM,118 µM,236 µM
COc1ccc2cc3[n+](cc2c1OCC(O)CN1CCCC1)CCc1cc2c(cc1-3)OCO2.[Br-] (stereo unspecified),121 µM,121 µM,121 µM,121 µM,121 µM,2340 µM,121 µM,242 µM,121 µM,242 µM,60 µM,121 µM
COc1ccc2cc3[n+](cc2c1OCC(O)CSc1nccn1C)CCc1cc2c(cc1-3)OCO2.[Br-] (stereo unspecified),112 µM,112 µM,56 µM,112 µM,56 µM,791 µM,56 µM,112 µM,56 µM,28 µM,112 µM,112 µM
COc1ccc2cc3[n+](cc2c1OCC(O)Cn1cc(C=O)c2ccccc21)CCc1cc2c(cc1-3)OCO2.[Br-] (stereo unspecified),53 µM,53 µM,53 µM,106 µM,106 µM,790 µM,53 µM,106 µM,106 µM,53 µM,53 µM,27 µM
COc1ccc2cc3[n+](cc2c1OC)CCc1cc2c(cc1-3)OCO2 [BERBERINE],172 µM,172 µM,344 µM,344 µM,689 µM,751 µM,344 µM,172 µM,1380 µM,344 µM,344 µM,344 µM
COc1ccc2cc3[n+](cc2c1OCC(O)CSc1nc[nH]n1)CCc1cc2c(cc1-3)OCO2.[Br-] (stereo unspecified),114 µM,114 µM,114 µM,114 µM,57 µM,801 µM,114 µM,57 µM,114 µM,57 µM,114 µM,114 µM
COc1ccc2cc3[n+](cc2c1OCC(O)Cn1nnc2ccccc21)CCc1cc2c(cc1-3)OCO2.[Br-] (stereo unspecified),111 µM,55 µM,111 µM,111 µM,111 µM,1720 µM,55 µM,111 µM,111 µM,111 µM,111 µM,111 µM
COc1ccc2cc3[n+](cc2c1OCC(O)Cn1cnc([N+](=O)[O-])c1)CCc1cc2c(cc1-3)OCO2.[Br-] (stereo unspecified),112 µM,56 µM,112 µM,112 µM,56 µM,936 µM,112 µM,56 µM,112 µM,28 µM,112 µM,56 µM
CCN(CC)CC(O)COc1c(OC)ccc2cc3[n+](cc12)CCc1cc2c(cc1-3)OCO2.[Br-] (stereo unspecified),120 µM,60 µM,120 µM,60 µM,60 µM,3320 µM,120 µM,241 µM,60 µM,241 µM,60 µM,60 µM
CCN(CCO)CC(O)COc1c(OC)ccc2cc3[n+](cc12)CCc1cc2c(cc1-3)OCO2.[Br-] (stereo unspecified),234 µM,234 µM,468 µM,468 µM,468 µM,3720 µM,468 µM,468 µM,468 µM,234 µM,468 µM,468 µM
COc1ccc2cc3[n+](cc2c1OCC(O)CN1CCNCC1)CCc1cc2c(cc1-3)OCO2.[Br-] (stereo unspecified),235 µM,118 µM,118 µM,15 µM,59 µM,3810 µM,235 µM,15 µM,118 µM,118 µM,118 µM,118 µM
COc1ccc2cc3[n+](cc2c1OCC(O)Cn1cnnc1)CCc1cc2c(cc1-3)OCO2.[Br-] (stereo unspecified),243 µM,243 µM,243 µM,243 µM,243 µM,1100 µM,243 µM,121 µM,243 µM,121 µM,243 µM,121 µM
COc1ccc2cc3[n+](cc2c1OCC(O)Cn1cnc2cc([N+](=O)[O-])ccc21)CCc1cc2c(cc1-3)OCO2.[Br-] (stereo unspecified),103 µM,51 µM,51 µM,103 µM,103 µM,895 µM,26 µM,103 µM,103 µM,51 µM,103 µM,26 µM
COc1ccc2cc3[n+](cc2c1OCC(O)CN1CCOCC1)CCc1cc2c(cc1-3)OCO2.[Br-] (stereo unspecified),235 µM,235 µM,469 µM,469 µM,469 µM,2190 µM,469 µM,469 µM,469 µM,235 µM,469 µM,469 µM
COc1ccc2cc3[n+](cc2c1OCC(O)Cn1cnc2ccccc21)CCc1cc2c(cc1-3)OCO2.[Br-] (stereo unspecified),56 µM,56 µM,56 µM,111 µM,56 µM,1720 µM,56 µM,56 µM,56 µM,28 µM,111 µM,56 µM
COc1ccc2cc3[n+](cc2c1OCC(O)CSc1nnc(C)s1)CCc1cc2c(cc1-3)OCO2.[Br-] (stereo unspecified),108 µM,108 µM,108 µM,108 µM,108 µM,1180 µM,108 µM,108 µM,108 µM,108 µM,108 µM,108 µM
COc1ccc2cc3[n+](cc2c1OCC(O)Cn1ccnc1)CCc1cc2c(cc1-3)OCO2.[Br-] (stereo unspecified),124 µM,124 µM,124 µM,124 µM,61 µM,1800 µM,124 µM,61 µM,61 µM,61 µM,124 µM,124 µM
COc1ccc2cc3[n+](cc2c1OCC(O)Cn1ccnc1-c1ccccc1)CCc1cc2c(cc1-3)OCO2.[Br-] (stereo unspecified),106 µM,53 µM,106 µM,106 µM,7 µM,701 µM,53 µM,53 µM,27 µM,27 µM,106 µM,106 µM
COc1ccc2cc3[n+](cc2c1OCC(O)CSc1nc2ccccc2[nH]1)CCc1cc2c(cc1-3)OCO2.[Br-] (stereo unspecified),105 µM,53 µM,53 µM,105 µM,53 µM,783 µM,53 µM,53 µM,26 µM,53 µM,105 µM,53 µM
COc1ccc2cc3[n+](cc2c1OCC(O)Cn1nnnc1C)CCc1cc2c(cc1-3)OCO2.[Br-] (stereo unspecified),121 µM,61 µM,121 µM,121 µM,121 µM,2150 µM,61 µM,121 µM,121 µM,121 µM,121 µM,121 µM
COc1ccc2cc3[n+](cc2c1OCC(O)Cn1cnc2cc(Br)ccc21)CCc1cc2c(cc1-3)OCO2.[Br-] (stereo unspecified),98 µM,98 µM,98 µM,98 µM,24 µM,774 µM,98 µM,24 µM,98 µM,49 µM,98 µM,98 µM
COc1ccc2cc3[n+](cc2c1OCC(O)CSc1nnnn1C)CCc1cc2c(cc1-3)OCO2.[Br-] (stereo unspecified),111 µM,111 µM,56 µM,111 µM,56 µM,992 µM,56 µM,111 µM,56 µM,28 µM,111 µM,111 µM
COc1ccc2cc3[n+](cc2c1OCC(O)CN(CCO)CCO)CCc1cc2c(cc1-3)OCO2.[Br-] (stereo unspecified),114 µM,28 µM,114 µM,114 µM,57 µM,4240 µM,227 µM,227 µM,114 µM,114 µM,14 µM,114 µM
